The values below are quoted from earlier work in patent US20030191121A1, “Piperazine carboxamide intermediates of HIV protease inhibitors and processes for their preparation” (priority 2001, published 2003).

The test system of the data set is HIV. As to conditions: HIV-infected patients, in combination with nucleoside reverse transcriptase inhibitors.

Turning to `CC(C)(C)NC(=O)[C@@H]1CN(Cc2cccnc2)CCN1C[C@@H](O)C[C@@H](Cc1ccccc1)C(=O)N[C@H]1c2ccccc2C[C@H]1O` [Indinavir, indinavir], the “reducing HIV viral loads and increasing CD4 cell counts” value was “highly effective”.
